The subject of one data set is prostate cancer lesions. Put plainly: [^68Ga]Ga-PSMA-11 PET/CT findings in the same patients. To be noted: for SUVmax of undetermined finding: 1 h p.i. Format: in vivo, human (patients). How it is done: The time interval between both, [^89Zr]Zr-PSMA-617 and [^68Ga]Ga-PSMA-11 PET/CT, was 31 ± 18 days (range 5–49 days), with no treatment performed in between. Prostate-specific antigen (PSA) serum level at time of imaging ranged from 0.43 to 1.92 ng/ml. All patients were initially treated with radical prostatectomy (RP). Initial Gleason score ranged from 7a to 9. Four patients underwent salvage treatments such as androgen-deprivation therapy (ADT), lymphadenectomy (LA) or radiation therapy (RT). Detailed patient characteristics including age, Gleason score, primary therapy, salvage therapies, time from initial diagnosis (ID) of prostate cancer, PSA and PSA doubling time (DT) are presented in Table 1. [^89Zr]Zr-PSMA-617 PET/CT imaging was performed on a compassionate use basis under the German Pharmaceutical Act §13 (2b). The medical indication for the examination and the labeling of the tracer were under the direct responsibility of the applying physician. Patients gave their written consent after being thoroughly informed about the general risks of both radiation exposure and application of a novel PET tracer including possible adverse effects of, e.g., therapeutic PSMA tracers. Furthermore, all patients agreed to the publication of the resulting data in accordance with the Declaration of Helsinki.

Details of data set [1]: method as in PMID 34326129. The conditions noted are these: cited from earlier work.

These results are taken from PMC9606102, “[^89Zr]Zr-PSMA-617 PET/CT in biochemical recurrence of prostate cancer: first clinical experience from a pilot study including biodistribution and dose estimates” (European Journal of Nuclear Medicine and Molecular Imaging, 2022).

Turning to `O=C([O-])CN(CCN(CC(=O)[O-])Cc1cc(CCC(=O)NCCCCCC(=O)NCCCC[C@H](NC(=O)N[C@@H](CCC(=O)O)C(=O)O)C(=O)O)ccc1[O-])Cc1cc(CCC(=O)O)ccc1[O-].[68Ga+3].[OH3+]` [[^68Ga]Ga-PSMA-11], the “Findings on [^68Ga]Ga-PSMA-11 PET/CT” value in the data set with prostate cancer lesions (Pt. no 1, PSA 1.92 ng/ml) was “No suspicious findings”; in the data set with prostate cancer lesions (Pt. no 2, PSA 1.75 ng/ml) it was 1 × LNM + undetermined finding (suspicion of right iliac LNM); in the data set on prostate cancer lesions (Pt. no 3, PSA 0.66 ng/ml), “No suspicious findings”; in the data set on prostate cancer lesions (Pt. no 4, PSA 1.77 ng/ml), “Undetermined finding (suspicion of peritoneal metastasis)”; in the data set on prostate cancer lesions (Pt. no 5, PSA 0.63 ng/ml), “No suspicious findings”; in the data set with prostate cancer lesions (Pt. no 6, PSA 0.43 ng/ml), “Undetermined finding (suspicion of local recurrence in seminal vesicle bed)”. Moreover, in the data set with prostate cancer lesions (Pt. no 7, PSA 0.68 ng/ml), the “Findings on [^68Ga]Ga-PSMA-11 PET/CT” value was “No suspicious findings”. Moreover, the “SUVmax of undetermined finding” value came out at 4.47 in the data set on prostate cancer lesions (patient no. 2, pelvic tracer uptake, considered as unspecific uptake) and 2.06 in the data set on prostate cancer lesions (patient no. 4, faint uptake in peritoneal lesion).

In the case of [^89Zr]Zr-PSMA-DFO, in data set [1], the Effective dose is reported as 0.15 ± 0.04 mSv/MBq.
